Assay [1] concerns the target T1, His6-tagged hSEP ectodomain (Homo sapiens, UniProt Q495T6).
T1 construct: His6-tagged hSEP ectodomain; His6; purchased Innogenetics, Ghent, Belgium
T1 sequence (Q495T6 49-779 limits assumed): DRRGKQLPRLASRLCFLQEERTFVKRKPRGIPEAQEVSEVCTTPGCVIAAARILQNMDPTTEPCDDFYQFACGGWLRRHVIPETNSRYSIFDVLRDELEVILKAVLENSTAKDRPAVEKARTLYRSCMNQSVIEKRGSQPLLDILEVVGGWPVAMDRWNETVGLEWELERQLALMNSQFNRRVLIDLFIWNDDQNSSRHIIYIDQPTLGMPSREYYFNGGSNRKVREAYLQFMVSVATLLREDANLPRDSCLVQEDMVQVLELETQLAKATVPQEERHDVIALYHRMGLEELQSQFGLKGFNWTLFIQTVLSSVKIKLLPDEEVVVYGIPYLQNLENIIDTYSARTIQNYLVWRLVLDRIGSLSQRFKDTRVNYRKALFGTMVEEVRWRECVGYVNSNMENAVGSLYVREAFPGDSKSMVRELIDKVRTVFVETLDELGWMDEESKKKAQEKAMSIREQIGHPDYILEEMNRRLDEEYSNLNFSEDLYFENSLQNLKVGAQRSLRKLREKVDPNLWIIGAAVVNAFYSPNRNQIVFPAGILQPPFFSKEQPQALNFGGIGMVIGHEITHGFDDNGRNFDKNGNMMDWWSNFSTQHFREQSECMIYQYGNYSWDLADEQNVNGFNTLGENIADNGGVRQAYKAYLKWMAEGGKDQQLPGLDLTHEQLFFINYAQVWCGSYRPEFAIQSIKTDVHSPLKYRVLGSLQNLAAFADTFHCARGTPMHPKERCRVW
In words: In vitro investigation of the hSEP-inhibitory action (fluorescence-quenched Big-ET-1 analogue, HPLC). In kind it is biochemical. The protocol: 2. In Vitro Investigation of the hSEP-Inhibitory Action of the Substances
In this test, the measure of the inhibitory activity of the substances which was determined was their IC50 value. The IC50 value of a test substance having enzyme-inhibitory activity is that concentration of the test substance at which 50% of the enzymatic activity of the hSEP is blocked.
The test and the HPLC procedure were carried out analogously to the manner set forth above for determining the in vitro inhibitory action of the test substances on NEP. 10 nM phosphoramidon served as standard inhibitor in the HPLC procedure. In this test model the test substances of Formula I listed in the following Table 2 had the IC50 values given below: […]

In assay [2] the target is T2, soluble, human recombinant NEP (Homo sapiens, UniProt P08473).
T2 construct: soluble, human recombinant NEP; purchased Prof; Crine, University of Montreal, Canada
T2 sequence (P08473 52-750 limits assumed): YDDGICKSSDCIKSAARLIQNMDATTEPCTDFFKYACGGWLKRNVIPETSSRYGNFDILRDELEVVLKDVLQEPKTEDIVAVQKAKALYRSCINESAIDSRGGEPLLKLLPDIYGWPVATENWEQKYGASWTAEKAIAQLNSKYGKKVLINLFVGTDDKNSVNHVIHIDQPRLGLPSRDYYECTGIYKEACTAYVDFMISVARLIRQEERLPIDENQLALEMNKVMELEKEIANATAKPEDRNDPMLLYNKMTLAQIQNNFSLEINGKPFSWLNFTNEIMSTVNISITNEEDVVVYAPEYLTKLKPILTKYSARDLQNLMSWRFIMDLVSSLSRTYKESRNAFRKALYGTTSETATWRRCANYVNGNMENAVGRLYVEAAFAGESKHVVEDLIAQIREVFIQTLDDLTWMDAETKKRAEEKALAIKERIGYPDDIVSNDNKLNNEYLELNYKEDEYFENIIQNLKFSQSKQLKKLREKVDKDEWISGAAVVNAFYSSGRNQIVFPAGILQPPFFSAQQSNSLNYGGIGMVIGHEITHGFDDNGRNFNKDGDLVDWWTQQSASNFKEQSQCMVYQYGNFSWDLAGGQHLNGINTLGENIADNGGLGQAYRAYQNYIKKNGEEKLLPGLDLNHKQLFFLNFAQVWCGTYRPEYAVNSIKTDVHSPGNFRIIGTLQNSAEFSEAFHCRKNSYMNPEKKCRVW
In words: In-vitro investigation of the NEP inhibitory action (fluorescence-quenched Big-ET-1 analogue, HPLC). In kind it is biochemical. Here is the method: 1. In-Vitro Investigation of the NEP Inhibitory Action of the Substances
In this test, the measure of the inhibitory activity of the substances which was determined was their IC50 value. The IC50 value of a test substance having enzyme-inhibitory activity is that concentration of the test substance at which 50% of the enzymatic activity of the NEP is blocked.
70 μl test buffer, 10 μl enzyme working solution and 10 μl test substance solution were mixed in an Eppendorf vessel and preincubated at 37° C. for 15 minutes (=min.). Then 10 μl substrate stock solution was added and the test batch was incubated for 60 minutes at 37° C. The enzymatic reaction was then ended by 5-minutes' heating to 95° C. After centrifugation (Heraeus Biofuge B, 3 min.), the liquid supernatant was investigated by HPLC in accordance with the following specifications.
The substrate was separated from cleavage products by means of reversed-phase HPLC (CC 125/4 Nucleosil 300/5 C18 RP column with CC 8/4 Nucleosil 100/5 C18 precolumn, from Macherey-Nagel, Düren, Germany). For this, 60 μl of the test mixture was injected into the HPLC sample injection point and the column was then eluted at a flow rate of 1 ml/min with the following gradient:
Mobile Phase B: 100% acetonitrile+0.5M H3PO4
All the peptides were detected by absorption at 214 nm and by fluorescence with an excitation wavelength of 328 nm and an emission wavelength of 393 nm.
Upon enzymatic cleavage of the peptide, the fluorophore (=Mca) and the quencher end up in different peptide fragments, which reduces the effectiveness of the quench. […] The increasing fluorescence signal (corresponds to the area, A) of the HPLC peak of the peptide with the non-quenched Mca fluorophore is used for the further calculations. This signal was compared for samples with (=Ainhib) and without (=Acontrol) test substance of Formula I, and the value “% inhibition” was calculated on the basis of the respective peak areas according to the following formula: % inhibition=100*(1−Ainhib/Acontrol)
All the samples were measured in duplicates and average values were calculated therefrom. A standard inhibitor (10 nM thiorphan) and a solvent control (0.1% DMSO) were likewise measured as quality controls on each run. In this test model the test substances of Formula I listed in the following Table 1 had the IC50 values given below: […]

In assay [3] the test system is formation of ET-1 from Big-ET-1. In words: In vivo inhibition of the Big-ET-1-induced blood pressure increase in anaesthetised rats, i.v. single dose. More on the design: species or system Rats (Sprague-Dawley). The note with it: Rattus norvegicus, iv, 5 min before 0.5 nmol/kg Big-ET-1, negative values indicate inhibition, read-out: % substance-related inhibition of the maximum Big-ET effect on SAP vs. control; for change in vivo at 10 µmol/kg: 10 μmol/kg; for change in vivo at 3 µmol/kg: 3 μmol/kg. An excerpt: 3. In Vivo Investigation of the Inhibitory Action of the Substances on the Formation of ET-1 from Big-ET-1 in Rats
ET-1 is an endogenous substance with strong vasoconstrictive effect. An increase in the ET-1 level results in an increase in blood pressure. Upon infusion of Big-ET-1, an increase in blood pressure takes place to the extent that ET-1 is produced therefrom by enzyme-catalysed cleavage of Big-ET-1. As a measurement of the enzyme-inhibiting action of the substances, their inhibitory action on the increase in blood pressure induced by infusion of Big-ET-1 was determined.
Rats (Sprague-Dawley, CRLD=Charles River) were anaesthetised with 1 ml/kg Rompun/Ketavet 1:1. A pressure transducer (Statham) was inserted into the carotid artery to measure blood pressure. One jugular vein was cannulated for administering the substance, and the other for administering Big-ET-1. After a 20-minute equilibration phase, the rats were administered the corresponding test substance of Formula I at a dose of as a rule 10 μmol/kg (if not stated otherwise), or a vehicle. Five minutes later, 0.5 nmol/kg Big-ET-1 was infused over a period of one minute. The systolic (SAP=systolic arterial pressure) and the diastolic (DAP=diastolic arterial pressure) blood pressure and the heart rate were each measured before administration of the substance, then immediately before administration of Big-ET and in each case every five minutes over a period of 30 minutes after Big-ET administration using the pressure transducer in known manner. The maximum Big-ET-induced increase in blood pressure and the maximum lowering of heart rate were calculated from the measured values as the difference between the value measured at the moment of maximum development of the Big-ET action (typically after 5 min.) and the value measured before Big-ET infusion. Furthermore, the integral of the blood pressure curve under the influence of Big-ET-1 was determined over 30 minutes (AUC=area under the curve).
The percentage inhibition of the maximum Big-ET-1 effect on the systolic arterial blood pressure (SAP) after i.v. administration of the test substances compared with administration of a vehicle is set forth in the following Table 3a:
Data given in table 3a as negative values indicate an inhibitory effect.

Molecules are shown by their SMILES.

By IC50 is commonly meant the concentration that inhibits the measured activity by half.

In assay [1], `CN(CCCO)C(=O)CC(CC1(C(=O)NC2CCc3ccccc3N(CC(=O)O)C2=O)CCCC1)C(=O)O` (racemic) [Example 56, 2-{[1-({[1-(carboxymethyl)-2-oxo-2,3,4,5-tetrahydro-1H-1-benzazepin-3-yl]amino}carbonyl)cyclopentyl]methyl}-4-[(3-hydroxypropyl)(methyl)amino]-4-oxobutanoic acid] gave an IC50 of 2.5 nM.
Turning to `CC(=O)CC(C)(C)NC(=O)CC(CC1(C(=O)N[C@H]2CCc3ccccc3N(CC(=O)O)C2=O)CCCC1)C(=O)O` (mixture of isomers) [Example 21], the concentration for half-maximal inhibition (IC50) in assay [2] is 16.9 nM. In addition, in assay [3], the change in vivo at 10 µmol/kg was -43%.
In the case of `CC(C)[C@H](N)C(=O)OC1CCN(C(=O)CC(CC2(C(=O)N[C@H]3CCc4ccccc4N(CC(=O)O)C3=O)CCCC2)C(=O)O)CC1` (stereo partly drawn) [Example 70, 2-{[1-({[1-(carboxymethyl)-2-oxo-2,3,4,5-tetrahydro-1H-1-benzazepin-3-yl]amino}carbonyl)cyclopentyl]methyl}-4-oxo-4-[4-(L-valyloxy)piperidin-1-yl]butanoic acid], the change in vivo at 10 µmol/kg in assay [3] is -77%.
In the case of `COc1ccccc1CNC(=O)CC(CC1(C(=O)N[C@H]2CCc3ccccc3N(CC(=O)O)C2=O)CCCC1)C(=O)O` (single isomer, unassigned) [Example 31], the IC50 in assay [2] came out at 4 nM; in assay [1] it was 12.3 nM.
The compound `CC(C)NC(=O)CC(CC1(C(=O)N[C@H]2CCc3ccccc3N(CC(=O)O)C2=O)CCCC1)C(=O)O` (stereo partly drawn) [Example 2, 2-{[(3S)-1-({[1-(carboxymethyl)-2-oxo-2,3,4,5-tetrahydro-1H-1-benzazepin-3-yl]amino}-carbonyl)cyclopentyl]methyl}-4-(isopropylamino)-4-oxobutyric acid] showed an IC50 in assay [1] of 21.4 nM. In assay [3], the change in vivo at 10 µmol/kg was -53%.
`CN(CCO)C(=O)CC(CC1(C(=O)NC2CCc3ccccc3N(CC(=O)O)C2=O)CCCC1)C(=O)O` (racemic) [Example 43, 2-{[1-({[1-(carboxymethyl)-2-oxo-2,3,4,5-tetrahydro-1H-1-benzazepin-3-yl]amino}carbonyl)cyclopentyl]methyl}-4-[(2-hydroxyethyl)(methyl)amino]-4-oxobutanoic acid]: the half-maximal inhibitory concentration (IC50) stood at 3.2 nM in assay [2] and 2.9 nM in assay [1].
Turning to `CNCCCN(C)C(=O)CC(CC1(C(=O)NC2CCc3ccccc3N(CC(=O)O)C2=O)CCCC1)C(=O)O` (racemic) [Example 77, 2-{[1-({[1-(carboxymethyl)-2-oxo-2,3,4,5-tetrahydro-1H-1-benzazepin-3-yl]amino}carbonyl)cyclopentyl]methyl}-4-{methyl[3-(methylamino)propyl]amino}-4-oxobutanoic acid], the change in vivo at 3 µmol/kg in assay [3] was -56%.
On to `O=C(O)CN1C(=O)[C@@H](NC(=O)C2(CC(CC(=O)NCCCO)C(=O)O)CCCC2)CCc2ccccc21` (stereo in doubt) [Example 10, (2″rel1″)-2-{[1-({[(3S)-1-(carboxymethyl)-2-oxo-2,3,4,5-tetrahydro-1H-1-benzazepin-3-yl]amino}carbonyl)cyclopentyl]methyl}-4-[(3-hydroxypropyl)amino]-4-oxobutyric acid], for which the IC50 is 37 nM in assay [2] and 25.3 nM in assay [1].
In the same order, the values of `O=C(O)CN1C(=O)[C@@H](NC(=O)C2(CC(CC(=O)N3CCOCC3)C(=O)O)CCCC2)CCc2ccccc21` (single isomer, unassigned) [Example 19] are 18.2 nM and 9.5 nM.
For the compound `CN(C)CCCN(C)C(=O)CC(CC1(C(=O)NC2CCc3ccccc3N(CC(=O)O)C2=O)CCCC1)C(=O)O` (racemic) [Example 60, 2-[(1-{[1-(carboxymethyl)-2-oxo-2,3,4,5-tetrahydro-1H-1-benzazepin-3-yl]carbamoyl}cyclopentyl)methyl]-4-{[3-(dimethylamino)propyl](methyl)amino}-4-oxobutanoic acid], the change in vivo at 10 µmol/kg in assay [3] is -70%.
Regarding `CNC(=O)CC(CC1(C(=O)N[C@H]2CCc3ccccc3N(CC(=O)O)C2=O)CCCC1)C(=O)O` (mixture of isomers) [Example 28], the 50% inhibitory concentration (IC50) in assay [1] was 11.9 nM.
Turning to `CC(C)N(C)C(=O)CC(CC1(C(=O)NC2CCc3ccccc3N(CC(=O)O)C2=O)CCCC1)C(=O)O` (racemic) [Example 32, 2-{[1-({[1-(carboxymethyl)-2-oxo-2,3,4,5-tetrahydro-1H-1-benzazepin-3-yl]amino}carbonyl)cyclopentyl]methyl}-4-[isopropyl(methyl)amino]-4-oxobutanoic acid], the IC50 in assay [2] was 13.8 nM. Further, the change in vivo at 10 µmol/kg in assay [3] was -60%.
For `CN(C)C(=O)CC(CC1(C(=O)NC2CCc3ccccc3N(CC(=O)O)C2=O)CCCC1)C(=O)O` (racemic) [Example 54, 2-{[1-({[1-(carboxymethyl)-2-oxo-2,3,4,5-tetrahydro-1H-1-benzazepin-3-yl]amino}carbonyl)cyclopentyl]methyl}-4-(dimethylamino)-4-oxobutanoic acid], the change in vivo at 10 µmol/kg in assay [3] is -87%.
`CC(C)NC(=O)CC(CC1(C(=O)N[C@H]2CCc3ccccc3N(CC(=O)O)C2=O)CCCC1)C(=O)OCc1ccc(Cl)cc1` (stereo partly drawn) [Example 14, {(3S)-3-[({1-[2-{[(4-chlorobenzyl)oxy]carbonyl}-4-(isopropylamino)-4-oxobutyl]-cyclopentyl}carbonyl)amino]-2-oxo-2,3,4,5-tetrahydro-1H-1-benzazepin-1-yl}acetic acid]: the change in vivo at 3 µmol/kg in assay [3] was -59%.

(Values after patent US20080085889A1, “Amidomethyl-Substituted 1-(Carboxyalkyl) Cyclopentyl-Carbonylamino-Benzazepine-N-Acetic Acid Compounds, Process and Intermediate Products for Their Preparation and Pharmaceutical Compositions Containing Them” (SOLVAY PHARMACEUTICALS GmbH, priority 2003, published 2008).)
